According to patent publication US20230340011A1 (Asteroid Therapeutics, priority 2022, published 2023):

Experiments:
SREBP-2 = SREBP-2 (Homo sapiens (Human), UniProt Q12772); test: In vitro assay SREBP-2: PathHunter U2OS SREBP-2 Nuclear Translocation Cell Line, U18666A-stimulated; format: cell-based; conditions: PathHunter U2OS SREBP-2 nuclear translocation cells, U18666A 10 μM, overnight (16 hours)
LXRβ = LXRβ (Homo sapiens (Human), UniProt P55055); test: In vitro assay LXRβ: PathHunter NHR CHO cells, LXRβ / Steroid Receptor Co-activator Peptide enzyme fragment complementation; format: cell-based; conditions: PathHunter NHR CHO cells, full-length human LXRβ and SRCP, chemiluminescent signal; read-out: LXRβ PPI
Sequence of LXRβ (P55055 whole entry, the tested form may be a part): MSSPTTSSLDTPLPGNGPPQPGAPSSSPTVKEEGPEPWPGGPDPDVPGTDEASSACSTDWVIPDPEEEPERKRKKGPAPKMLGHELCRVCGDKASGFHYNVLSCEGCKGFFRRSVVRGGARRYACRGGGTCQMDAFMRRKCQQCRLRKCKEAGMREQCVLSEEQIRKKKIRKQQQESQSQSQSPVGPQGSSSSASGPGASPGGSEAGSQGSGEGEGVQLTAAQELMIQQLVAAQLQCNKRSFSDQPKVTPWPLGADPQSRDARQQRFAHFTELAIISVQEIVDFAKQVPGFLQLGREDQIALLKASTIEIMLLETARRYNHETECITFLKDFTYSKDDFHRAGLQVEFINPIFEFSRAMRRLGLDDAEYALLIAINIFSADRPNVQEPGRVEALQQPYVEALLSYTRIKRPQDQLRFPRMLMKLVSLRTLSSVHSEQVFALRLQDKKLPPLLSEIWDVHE
Outline: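 Co-activator recruitment measured by chemiluminescence after signal generation. The CHO line carries full-length human LXRβ tagged with ProLink and an SRCP–enzyme acceptor fusion in the nucleus; cells sat overnight at 37° C before testing, in charcoal-dextran filtered serum medium with 1% final vehicle.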

## COc1ncccc1N1CCN(C(=O)CC[C@@H](C)[C@H]2CC[C@H]3[C@@H]4CC=C5C[C@@H](O)CC[C@]5(C)[C@H]4CC[C@]23C)CC1 [Example 612, (R)-4-((3S,8S,9S,10R,13R,14S,17R)-3-hydroxy-10,13-dimethyl-2,3,4,7,8,9,10,11,12,13,14,15,16,17-tetradecahydro-1H-cyclopenta[a]phenanthren-17-yl)-1-(4-(2-methoxypyridin-3-yl)piperazin-1-yl)pentan-1-one]
SREBP-2
  IC50: < 250 nM
LXRβ
  EC50: > 10000 nM

## C[C@H](CCC(=O)N1CCC[C@@](C)(O)C1)[C@H]1CC[C@H]2[C@@H]3CC=C4C[C@@H](O)CC[C@]4(C)[C@H]3CC[C@]12C [Example 105, (R)-4-((3S,8S,9S,10R,13R,14S,17R)-3-hydroxy-10,13-dimethyl-2,3,4,7,8,9,10,11,12,13,14,15,16,17-tetradecahydro-1H-cyclopenta[a]phenanthren-17-yl)-1-((R)-3-hydroxy-3-methylpiperidin-1-yl) pentan-1-one]
SREBP-2
  IC50: < 250 nM
LXRβ
  EC50: 1000 to 10000 nM

## C[C@H](CCC(=O)N1CCN(C(=O)c2cn(C)nn2)CC1)[C@H]1CC[C@H]2[C@@H]3CC=C4C[C@@H](O)CC[C@]4(C)[C@H]3CC[C@]12C [Example 308, (R)-4-((3S,8S,9S,10R,13R,14S,17R)-3-hydroxy-10,13-dimethyl-2,3,4,7,8,9,10,11,12,13,14,15,16,17-tetradecahydro-1H-cyclopenta[a]phenanthren-17-yl)-1-(4-(1-methyl-1H-1,2,3-triazole-4-carbonyl)piperazin-1-yl)pentan-1-one]
SREBP-2
  IC50: < 250 nM
LXRβ
  EC50: > 10000 nM

## C[C@H](CCC(=O)N1CCN(C(=O)C(C)(C)O)C[C@@H]1C)[C@H]1CC[C@H]2[C@@H]3CC=C4C[C@@H](O)CC[C@]4(C)[C@H]3CC[C@]12C [Example 653, (R)-4-((3S,8S,9S,10R,13R,14S,17R)-3-hydroxy-10,13-dimethyl-2,3,4,7,8,9,10,11,12,13,14,15,16,17-tetradecahydro-1H-cyclopenta[a]phenanthren-17-yl)-1-((S)-4-(2-hydroxy-2-methylpropanoyl)-2-methylpiperazin-1-yl)pentan-1-one]
SREBP-2
  IC50: < 250 nM
LXRβ
  EC50: > 10000 nM

## C[C@H](CCC(=O)N1CCC[C@@H]1C)[C@H]1CC[C@H]2[C@@H]3CC=C4C[C@@H](O)CC[C@]4(C)[C@H]3CC[C@]12C [Example 112, (R)-4-((3S,8S,9S,10R,13R,14S,17R)-3-hydroxy-10,13-dimethyl-2,3,4,7,8,9,10,11,12,13,14,15,16,17-tetradecahydro-1H-cyclopenta[a]phenanthren-17-yl)-1-((S)-2-methylpyrrolidin-1-yl)pentan-1-one]
SREBP-2
  IC50: < 250 nM
LXRβ
  EC50: 250 to 1000 nM

## CCN(CC)C(=O)N1CCN(C(=O)CC[C@@H](C)[C@H]2CC[C@H]3[C@@H]4CC=C5C[C@@H](O)CC[C@]5(C)[C@H]4CC[C@]23C)CC1 [Example 212, N,N-diethyl-4-((R)-4-((3S,8S,9S,10R,13R,14S,17R)-3-hydroxy-10,13-dimethyl-2,3,4,7,8,9,10,11,12,13,14,15,16,17-tetradecahydro-1H-cyclopenta[a]phenanthren-17-yl)pentanoyl)piperazine-1-carboxamide]
SREBP-2
  IC50: < 250 nM
LXRβ
  EC50: > 10000 nM

## C[C@H](CCC(=O)N1CCN(c2ccn(C3CC3)c2)CC1)[C@H]1CC[C@H]2[C@@H]3CC=C4C[C@@H](O)CC[C@]4(C)[C@H]3CC[C@]12C [Example 516, (R)-1-(4-(1-cyclopropyl-1H-pyrrol-3-yl)piperazin-1-yl)-4-((3S,8S,9S,10R,13R,14S,17R)-3-hydroxy-10,13-dimethyl-2,3,4,7,8,9,10,11,12,13,14,15,16,17-tetradecahydro-1H-cyclopenta[a]phenanthren-17-yl)pentan-1-one]
SREBP-2
  IC50: < 250 nM
LXRβ
  EC50: > 10000 nM

## C[C@H](CCC(=O)N1CCC[C@H](O)C1)[C@H]1CC[C@H]2[C@@H]3CC=C4C[C@@H](O)CC[C@]4(C)[C@H]3CC[C@]12C [Example 103, (R)-4-((3S,8S,9S,10R,13R,14S,17R)-3-hydroxy-10,13-dimethyl-2,3,4,7,8,9,10,11,12,13,14,15,16,17-tetradecahydro-1H-cyclopenta[a]phenanthren-17-yl)-1-((S)-3-hydroxypiperidin-1-yl)pentan-1-one]
SREBP-2
  IC50: < 250 nM
LXRβ
  EC50: 250 to 1000 nM

## COc1nnccc1N1CCN(C(=O)CC[C@@H](C)[C@H]2CC[C@H]3[C@@H]4CC=C5C[C@@H](O)CC[C@]5(C)[C@H]4CC[C@]23C)CC1 [Example 629, (R)-4-((3S,8S,9S,10R,13R,14S,17R)-3-hydroxy-10,13-dimethyl-2,3,4,7,8,9,10,11,12,13,14,15,16,17-tetradecahydro-1H-cyclopenta[a]phenanthren-17-yl)-1-(4-(3-methoxypyridazin-4-yl)piperazin-1-yl)pentan-1-one]
SREBP-2
  IC50: < 250 nM
LXRβ
  EC50: > 10000 nM

## CON(CCO)C(=O)CC[C@@H](C)[C@H]1CC[C@H]2[C@@H]3CC=C4C[C@@H](O)CC[C@]4(C)[C@H]3CC[C@]12C [Example 62, (R)-4-((3S,8S,9S,10R,13R,14S,17R)-3-hydroxy-10,13-dimethyl-2,3,4,7,8,9,10,11,12,13,14,15,16,17-tetradecahydro-1H-cyclopenta[a]phenanthren-17-yl)-N-(2-hydroxyethyl)-N-methoxypentanamide]
SREBP-2
  IC50: 250 to 1000 nM
LXRβ
  EC50: 250 to 1000 nM

## COC(=O)N1CCN(C(=O)CC[C@@H](C)[C@H]2CC[C@H]3[C@@H]4CC=C5C[C@@H](O)CC[C@]5(C)[C@H]4CC[C@]23C)[C@@H](C)C1 [Example 579, Methyl(S)-4-((R)-4-((3S,8S,9S,10R,13R,14S,17R)-3-hydroxy-10,13-dimethyl-2,3,4,7,8,9,10,11,12,13,14,15,16,17-tetradecahydro-1H-cyclopenta[a]phenanthren-17-yl)pentanoyl)-3-methylpiperazine-1-carboxylate]
SREBP-2
  IC50: < 250 nM
LXRβ
  EC50: > 10000 nM

## C[C@H](CCC(=O)N1CCN(C(=O)N2CC[C@@H]2C)CC1)[C@H]1CC[C@H]2[C@@H]3CC=C4C[C@@H](O)CC[C@]4(C)[C@H]3CC[C@]12C [Example 665, (R)-4-((3S,8S,9S,10R,13R,14S,17R)-3-hydroxy-10,13-dimethyl-2,3,4,7,8,9,10,11,12,13,14,15,16,17-tetradecahydro-1H-cyclopenta[a]phenanthren-17-yl)-1-(4-((S)-2-methylazetidine-1-carbonyl)piperazin-1-yl)pentan-1-one]
SREBP-2
  IC50: < 250 nM
LXRβ
  EC50: > 10000 nM

## C[C@H](CCc1cc(F)ccn1)[C@H]1CC[C@H]2[C@@H]3CC=C4C[C@@H](O)CC[C@]4(C)[C@H]3CC[C@]12C [Example 163, (3S,8S,9S,10R,13R,14S,17R)-17-((R)-4-(4-fluoropyridin-2-yl)butan-2-yl)-10,13-dimethyl-2,3,4,7,8,9,10,11,12,13,14,15,16,17-tetradecahydro-1H-cyclopenta[a]phenanthren-3-ol]
SREBP-2
  IC50: < 250 nM
LXRβ
  EC50: 1000 to 10000 nM

## CON(C[C@H](C)O)C(=O)CC[C@@H](C)[C@H]1CC[C@H]2[C@@H]3CC=C4C[C@@H](O)CC[C@]4(C)[C@H]3CC[C@]12C [Example 69, (R)-4-((3S,8S,9S,10R,13R,14S,17R)-3-hydroxy-10,13-dimethyl-2,3,4,7,8,9,10,11,12,13,14,15,16,17-tetradecahydro-1H-cyclopenta[a]phenanthren-17-yl)-N—((S)-2-hydroxypropyl)-N-methoxypentanamide]
SREBP-2
  IC50: < 250 nM
LXRβ
  EC50: 250 to 1000 nM
